From patent US10806717B2, “Methods and compositions for improving cognitive function” (The Johns Hopkins University, priority 2013, dated 2020)
“Also recorded” adds a separate entry of the source.

What was measured:
[1] = target: synaptic vesicle protein 2A (SV2A) (Homo sapiens, UniProt Q7L0J3); settings: specific site in the CNS; cited from earlier work
somatostatin in DG hilus = assay: Immunohistochemistry of SOM-immunoreactive hilar neurons after chronic levetiracetam; type: in vivo, rat; settings: levetiracetam 10 mg/kg/day, osmotic minipumps, four weeks, aged-impaired rats; AI-LEV vs AI-VEH p<0.01
[2] = test system: Age-Impaired (AI) Long-Evans rats; assay: Morris Water Maze retention trial, levetiracetam i.p.; type: in vivo, rat
Procedure: The MWM apparatus consists of a large, circular pool (diameter 1.53 m; height, 0.58 m) filled with water (27° C.) that is made opaque through the addition of non-toxic pigment or some other substance. In the typical “hidden platform” version of the test, rats are trained to find a camouflaged white escape platform (height, 34.5 cm) that is positioned in the center of one quadrant of the maze about 1.0 cm below the water surface. This platform can be retracted to the bottom of the tank or raised to its normal position from outside the maze during behavioral testing. The location of the platform remains constant from trial to trial. Because there are no local cues that mark the position of the platform, the rat's ability to locate it efficiently from any starting position at the perimeter of the pool depends on using information surrounding the maze. The maze is surrounded by black curtains to which white patterns are affixed to provide a configuration of spatial cues. A second platform (height 37.5 cm), with its surface painted black is elevated 2 cm above the water surface during cue training to control for factors unrelated to cognition. The behavior of a rat in the pool is recorded by a camera that is suspended 2.5 m above the center of the pool. The camera is connected to a video tracking system (HVS Image Advanced Tracker VP200) and a PC computer running HVS software developed by Richard Baker of HVS Image, Hampton, UK. Six Age-Impaired (AI) Long-Evans rats (as characterized above) were tested for their memory of new spatial information in the MWM, under different drug/control treatment conditions (vehicle control and two different dosage levels of levetiracetam). The MWM protocol was substantially the same as the one described in Example 1. Specifically for this study, a retention trial was performed after the training trials, as described below. AI rats were given six training trials per training day with a 60-sec inter-trial interval between each training trial for two consecutive days. […]

[3] = levetiracetam 10 mg/kg/day i.p.

synaptic vesicle protein 2A (SV2A), sequence (Q7L0J3 whole entry, species assumed): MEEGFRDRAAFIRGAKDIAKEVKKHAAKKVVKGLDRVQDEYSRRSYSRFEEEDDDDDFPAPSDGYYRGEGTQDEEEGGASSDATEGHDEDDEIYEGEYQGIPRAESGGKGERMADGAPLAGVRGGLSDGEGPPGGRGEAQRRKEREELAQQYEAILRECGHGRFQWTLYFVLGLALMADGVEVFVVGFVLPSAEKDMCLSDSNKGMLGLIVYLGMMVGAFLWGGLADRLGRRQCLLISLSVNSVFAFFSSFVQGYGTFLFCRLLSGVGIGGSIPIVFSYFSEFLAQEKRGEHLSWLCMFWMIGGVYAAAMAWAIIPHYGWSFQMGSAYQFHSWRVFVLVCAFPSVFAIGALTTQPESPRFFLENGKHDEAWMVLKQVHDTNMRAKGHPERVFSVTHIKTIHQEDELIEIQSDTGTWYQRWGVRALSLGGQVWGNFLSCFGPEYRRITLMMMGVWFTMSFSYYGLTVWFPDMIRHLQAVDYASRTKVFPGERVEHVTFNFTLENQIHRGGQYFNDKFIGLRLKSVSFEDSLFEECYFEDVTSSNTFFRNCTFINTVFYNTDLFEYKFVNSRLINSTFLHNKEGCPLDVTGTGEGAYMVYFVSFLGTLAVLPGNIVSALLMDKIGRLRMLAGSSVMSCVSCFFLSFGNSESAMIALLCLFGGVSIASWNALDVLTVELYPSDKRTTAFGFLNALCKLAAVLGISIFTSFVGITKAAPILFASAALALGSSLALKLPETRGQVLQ

Q: For CC[C@@H](C(N)=O)N1CCCC1=O [levetiracetam, (2S)-2-(2-oxopyrrolidin-1-yl)butanamide], which “binding to SV2A” value [1] is on record?
A: Its value is “binds”.

Q: And the “levels of somatostatin (SOM-immunoreactive hilar neurons) in DG hilus” value (somatostatin in DG hilus)?
A: Its value is “restores the levels of somatostatin; also recorded: restores sematostatin”.

Q: And the “memory performance (time in target quadrant) compared to vehicle” value ([2]; levetiracetam 5 mg/kg/day i.p.)?
A: Its value is “did not significantly improve”.

Q: And the “memory performance (time in target quadrant) compared to vehicle” value [2, 3]?
A: The value was “significantly improved memory”.

Q: And the “time spent in the target annulus” value [2, 3]?
A: The value was “effectivness of the 10 mg/kg/day levetiracetam treatment was also seen”.
